Article PMC6118387, “In silico drug absorption tract: An agent-based biomimetic model for human oral drug absorption” (PLoS ONE, 2018)
Several values for one entry are separate records, joined by “and”; a condition that tells them apart may be missing. Equal entries are not always repeated. Where two headings read alike, the source gives them in different places.

Columns and labels:
[1] = Clinical bioequivalence study: plasma concentrations (LC-MS-MS) and noncompartmental PK after oral tablet; format: in vivo, human
[2] = midazolam, literature referent value, cited from earlier work
[3] = model drug parameter fixed to literature reported value; cited from earlier work
[4] = Referent clinical, midazolam 15 mg tablet oral, N = 15, mean ±1 SD
[5] = human, plasma, Referent clinical, midazolam 15 mg tablet oral, N = 15, mean ±1 SD

SMILES: Cc1ncc2n1-c1ccc(Cl)cc1C(c1ccccc1F)=NC2 [Midazolam, midazolam]
- CL/F [1, 4]: 57.72 ± 19.31 L/h
- V/F [1, 4]: 205.20 ± 56.75 L
- Tmax ([1]; Referent clinical, midazolam 15 mg tablet oral, N = 15, median): 30 min
- Cmax ([1]; human, plasma, oral, 15 mg, midazolam, peak of the mean clinical concentration-time profile over 24 hours): 90.2 ng/mL
- concentration at 0 h ([1]; human, plasma, po, 15 mg, midazolam 15 mg oral, plasma, mean (±1 SD) N=15, read-out: Concentration, Referent): 0 ng/mL
- concentration at 0 h ([1]; human, plasma, po, 15 mg, midazolam 15 mg oral, plasma, one value per subject (columns A1-A8, B1-B7), read-out: Concentration, individual subjects): 0 ng/mL
- concentration at 0.25 h ([1]; human, plasma, po, 15 mg, midazolam 15 mg oral, plasma, 0.25 h, mean (±1 SD) N=15, read-out: Concentration, Referent): 12.2 ± 14.4 ng/mL
- concentration at 0.5 h ([1]; human, plasma, po, 15 mg, midazolam 15 mg oral, plasma, 0.5 h, mean (±1 SD) N=15, read-out: Concentration, Referent): 90.2 ± 47.6 ng/mL
- concentration at 1 h ([1]; human, plasma, po, 15 mg, midazolam 15 mg oral, plasma, 1 h, mean (±1 SD) N=15, read-out: Concentration, Referent): 56.6 ± 22.6 ng/mL
- concentration at 1.5 h ([1]; human, plasma, po, 15 mg, midazolam 15 mg oral, plasma, 1.5 h, mean (±1 SD) N=15, read-out: Concentration, Referent): 46.8 ± 12.5 ng/mL
- concentration at 2 h ([1]; human, plasma, po, 15 mg, midazolam 15 mg oral, plasma, 2 h, mean (±1 SD) N=15, read-out: Concentration, Referent): 47.8 ± 19.1 ng/mL
- concentration at 2.5 h ([1]; human, plasma, po, 15 mg, midazolam 15 mg oral, plasma, 2.5 h, mean (±1 SD) N=15, read-out: Concentration, Referent): 41.1 ± 15.1 ng/mL
- concentration at 3 h ([1]; human, plasma, po, 15 mg, midazolam 15 mg oral, plasma, 3 h, mean (±1 SD) N=15, read-out: Concentration, Referent): 40.3 ± 26.1 ng/mL
- concentration at 4 h ([1]; human, plasma, po, 15 mg, midazolam 15 mg oral, plasma, 4 h, mean (±1 SD) N=15, read-out: Concentration, Referent): 32.4 ± 21.1 ng/mL
- concentration at 6 h ([1]; human, plasma, po, 15 mg, midazolam 15 mg oral, plasma, 6 h, mean (±1 SD) N=15, read-out: Concentration, Referent): 15.6 ± 9.4 ng/mL
- concentration at 8 h ([1]; human, plasma, po, 15 mg, midazolam 15 mg oral, plasma, 8 h, mean (±1 SD) N=15, read-out: Concentration, Referent): 9.33 ± 5.73 ng/mL
- concentration at 10 h ([1]; human, plasma, po, 15 mg, midazolam 15 mg oral, plasma, 10 h, mean (±1 SD) N=15, read-out: Concentration, Referent): 5.75 ± 4.06 ng/mL
- concentration at 12 h ([1]; human, plasma, po, 15 mg, midazolam 15 mg oral, plasma, 12 h, mean (±1 SD) N=15, read-out: Concentration, Referent): 3.48 ± 2.75 ng/mL
- concentration at 24 h ([1]; human, plasma, po, 15 mg, midazolam 15 mg oral, plasma, 24 h, mean (±1 SD) N=15, read-out: Concentration, Referent): 0.41 ± 0.63 ng/mL
- AUC [1, 5]: 296 ± 126 ng·h/mL
- Cmax [1, 5]: 101 ± 33 ng/mL
- k el [1, 5]: 7.78e-05 s⁻¹
- Concentration, individual subjects ([1]; midazolam 15 mg oral, plasma, 2.5 h, one value per subject (columns A1-A8, B1-B7)): 54.91 ng/mL and 40.38 ng/mL and 25.80 ng/mL and 40.78 ng/mL and 31.74 ng/mL and 48.76 ng/mL and 34.21 ng/mL and 20.63 ng/mL and 33.92 ng/mL and 30.24 ng/mL and 57.61 ng/mL and 24.84 ng/mL and 35.19 ng/mL and 58.33 ng/mL and 78.77 ng/mL
- Concentration, individual subjects ([1]; midazolam 15 mg oral, plasma, 3 h, one value per subject (columns A1-A8, B1-B7)): 52.06 ng/mL and 27.73 ng/mL and 21.71 ng/mL and 25.74 ng/mL and 36.83 ng/mL and 69.41 ng/mL and 35.36 ng/mL and 17.14 ng/mL and 26.32 ng/mL and 22.37 ng/mL and 41.78 ng/mL and 21.67 ng/mL and 38.29 ng/mL and 47.32 ng/mL and 120.12 ng/mL
- Concentration, individual subjects ([1]; midazolam 15 mg oral, plasma, 4 h, one value per subject (columns A1-A8, B1-B7)): 42.50 ng/mL and 20.80 ng/mL and 19.34 ng/mL and 20.60 ng/mL and 28.96 ng/mL and 77.03 ng/mL and 23.38 ng/mL and 14.36 ng/mL and 20.65 ng/mL and 15.37 ng/mL and 24.77 ng/mL and 22.90 ng/mL and 30.75 ng/mL and 41.37 ng/mL and 83.44 ng/mL
- Concentration, individual subjects ([1]; midazolam 15 mg oral, plasma, 6 h, one value per subject (columns A1-A8, B1-B7)): 24.75 ng/mL and 8.47 ng/mL and 11.09 ng/mL and 8.46 ng/mL and 15.04 ng/mL and 29.67 ng/mL and 12.43 ng/mL and 6.69 ng/mL and 9.53 ng/mL and 10.09 ng/mL and 12.41 ng/mL and 7.25 ng/mL and 15.05 ng/mL and 24.91 ng/mL and 38.15 ng/mL
- Concentration, individual subjects ([1]; midazolam 15 mg oral, plasma, 8 h, one value per subject (columns A1-A8, B1-B7)): 14.78 ng/mL and 4.58 ng/mL and 5.87 ng/mL and 3.98 ng/mL and 6.08 ng/mL and 15.63 ng/mL and 6.16 ng/mL and 4.20 ng/mL and 7.07 ng/mL and 8.11 ng/mL and 11.11 ng/mL and 3.58 ng/mL and 8.96 ng/mL and 17.42 ng/mL and 22.42 ng/mL
- Concentration, individual subjects ([1]; midazolam 15 mg oral, plasma, 10 h, one value per subject (columns A1-A8, B1-B7)): 9.22 ng/mL and 2.05 ng/mL and 4.27 ng/mL and 2.24 ng/mL and 3.91 ng/mL and 8.93 ng/mL and 3.37 ng/mL and 2.53 ng/mL and 5.05 ng/mL and 3.40 ng/mL and 6.04 ng/mL and 1.38 ng/mL and 5.79 ng/mL and 13.69 ng/mL and 14.29 ng/mL
- Concentration, individual subjects ([1]; midazolam 15 mg oral, plasma, 12 h, one value per subject (columns A1-A8, B1-B7)): 5.37 ng/mL and 1.26 ng/mL and 2.53 ng/mL and 1.54 ng/mL
- F (absolute oral bioavailability) [2]: 31–72%
- Fa × Fg [2]: 48–76%
- Fh [2]: 36–57%
- Fa × Fg ([2]; listed as midazolam): 48–76%
- Fh ([2]; listed as midazolam): 36–57%
- logP, In silico Logarithm of partition coefficient [3]: 3.6
